From PubChem BioAssay (NCI)
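Following 48 hours of exposure in 96-well plates, responses at five concentrations were used to interpolate endpoints linearly. GI50 marks 50% less growth. The concentration for full growth arrest is given as TGI.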

Legend:
Experiment in all cases: DTP human tumour cell line panel, 48 h
KM12 colon = system: KM12 colon
RPMI-8226 leukemia = system: RPMI-8226 leukemia
SR leukemia = system: SR leukemia
RXF 393 renal = system: RXF 393 renal
HCT-116 colon = system: HCT-116 colon
UACC-257 melanoma = system: UACC-257 melanoma
NCI-H460 lung = system: NCI-H460 lung
OVCAR-5 ovarian = system: OVCAR-5 ovarian
M14 melanoma = system: M14 melanoma
SK-OV-3 ovarian = system: SK-OV-3 ovarian

How did the TGI (KM12 colon) turn out when Cc1ccccc1C1=[N+]([O-])c2ccc(Cl)cc2C1=O was run?
The TGI was 27.1 µM.

And the TGI (RPMI-8226 leukemia)?
Its TGI is 9.37 µM.

And the TGI (SR leukemia)?
The TGI was 64.2 µM.

And the TGI (RXF 393 renal)?
Its TGI is 34.9 µM.

What about the TGI (HCT-116 colon) of the same compound?
The TGI was 19.5 µM.

What about the TGI (UACC-257 melanoma) of the same compound?
Its TGI is 26.4 µM.

And the TGI (NCI-H460 lung)?
Its TGI is 30.9 µM.

What about the TGI (OVCAR-5 ovarian) of the same compound?
The TGI was 37.8 µM.

What about the TGI (M14 melanoma) of the same compound?
Its TGI is 29.9 µM.

And the TGI (SK-OV-3 ovarian)?
The TGI was 52.6 µM.

With CC1=C(C#N)C(=O)CC(c2ccc(Cl)cc2)N(C)N1 (stereo not given) as the compound, how does the TGI (KM12 colon) read?
Its TGI is over 100 µM.

What about the TGI (RPMI-8226 leukemia) of the same compound?
Its TGI is over 100 µM.

What about the TGI (SR leukemia) of the same compound?
The TGI was over 100 µM.

And the TGI (RXF 393 renal)?
Its TGI is over 100 µM.

And the TGI (HCT-116 colon)?
The TGI was over 100 µM.

What about the TGI (UACC-257 melanoma) of the same compound?
Its TGI is over 100 µM.

And the TGI (NCI-H460 lung)?
Its TGI is over 100 µM.

What about the TGI (OVCAR-5 ovarian) of the same compound?
The TGI was over 100 µM.

And the TGI (M14 melanoma)?
The TGI was over 100 µM.

And the TGI (SK-OV-3 ovarian)?
Its TGI is over 100 µM.

What does the source list for O=C(/C(=C\c1c(-c2ccccc2)[nH]c2ccccc12)S(=O)(=O)c1ccccc1)c1ccccc1?
GI50 (KM12 colon): 5.06 µM; TGI (KM12 colon): > 100 µM; GI50 (RPMI-8226 leukemia): 7.61 µM; TGI (RPMI-8226 leukemia): > 100 µM; GI50 (SR leukemia): 9.91 µM; TGI (SR leukemia): > 100 µM; GI50 (RXF 393 renal): 97.1 µM; TGI (RXF 393 renal): > 100 µM; GI50 (HCT-116 colon): 4.89 µM; TGI (HCT-116 colon): > 100 µM; GI50 (UACC-257 melanoma): > 100 µM; TGI (UACC-257 melanoma): > 100 µM; GI50 (NCI-H460 lung): 5.9 µM; TGI (NCI-H460 lung): > 100 µM; GI50 (OVCAR-5 ovarian): > 100 µM; TGI (OVCAR-5 ovarian): > 100 µM; GI50 (M14 melanoma): 15.6 µM; TGI (M14 melanoma): > 100 µM; GI50 (SK-OV-3 ovarian): 7.63 µM; TGI (SK-OV-3 ovarian): > 100 µM

How did the TGI (KM12 colon) turn out when O=c1[nH]cnc(NC2C=C(CO)C(O)C2O)c1[N+](=O)[O-] (stereo not given) was run?
The TGI was over 100 µM.

And the TGI (RPMI-8226 leukemia)?
The TGI was over 71.3 µM.

And the TGI (SR leukemia)?
The TGI was over 100 µM.

What about the TGI (RXF 393 renal) of the same compound?
Its TGI is over 100 µM.

And the TGI (HCT-116 colon)?
Its TGI is over 53.1 µM.

And the TGI (UACC-257 melanoma)?
The TGI was over 100 µM.

And the TGI (NCI-H460 lung)?
The TGI was over 58.2 µM.

What about the TGI (OVCAR-5 ovarian) of the same compound?
Its TGI is over 100 µM.

What about the TGI (M14 melanoma) of the same compound?
Its TGI is over 100 µM.

And the TGI (SK-OV-3 ovarian)?
The TGI was over 100 µM.

For Nc1cc(Br)c(-c2nnc(CCC(=O)c3nc4ccccc4[nH]3)o2)c(Br)c1, which GI50 (KM12 colon) is on record?
Its GI50 is 3.71 µM.

What about the TGI (KM12 colon) of the same compound?
The TGI was 18 µM.

What about the GI50 (RPMI-8226 leukemia) of the same compound?
Its GI50 is 4.21 µM.

And the TGI (RPMI-8226 leukemia)?
The TGI was over 100 µM.

And the GI50 (SR leukemia)?
Its GI50 is 4.2 µM.

What about the TGI (SR leukemia) of the same compound?
The TGI was over 100 µM.

What about the GI50 (RXF 393 renal) of the same compound?
Its GI50 is 13 µM.

What about the TGI (RXF 393 renal) of the same compound?
The TGI was 58.7 µM.

And the GI50 (HCT-116 colon)?
Its GI50 is 8.26 µM.

What about the TGI (HCT-116 colon) of the same compound?
Its TGI is over 100 µM.

What about the GI50 (UACC-257 melanoma) of the same compound?
Its GI50 is 7.63 µM.

And the TGI (UACC-257 melanoma)?
The TGI was over 100 µM.

What about the GI50 (NCI-H460 lung) of the same compound?
The GI50 was 3.99 µM.

What about the TGI (NCI-H460 lung) of the same compound?
Its TGI is 20.1 µM.

What about the GI50 (OVCAR-5 ovarian) of the same compound?
The GI50 was 29.4 µM.

What about the TGI (OVCAR-5 ovarian) of the same compound?
Its TGI is over 100 µM.

What about the GI50 (M14 melanoma) of the same compound?
Its GI50 is 17.5 µM.

What about the TGI (M14 melanoma) of the same compound?
The TGI was 55.5 µM.

What about the GI50 (SK-OV-3 ovarian) of the same compound?
The GI50 was 22.3 µM.

And the TGI (SK-OV-3 ovarian)?
Its TGI is 80.5 µM.

What does the source list for COc1cc2c(Nc3cc(Cl)c(OC)c(Cl)c3)c(C#N)cnc2cc1OCCCN1CCN(C)CC1?
GI50 (KM12 colon): 2.19 µM; TGI (KM12 colon): 10.1 µM; GI50 (RPMI-8226 leukemia): 1.47 µM; TGI (RPMI-8226 leukemia): 4.79 µM; GI50 (SR leukemia): 1.53 µM; TGI (SR leukemia): 4.41 µM; GI50 (RXF 393 renal): 1.01 µM; TGI (RXF 393 renal): 2.5 µM; GI50 (HCT-116 colon): 1.21 µM; TGI (HCT-116 colon): 3.49 µM; GI50 (UACC-257 melanoma): 1.67 µM; TGI (UACC-257 melanoma): 3.07 µM; GI50 (NCI-H460 lung): 1.91 µM; TGI (NCI-H460 lung): 8.47 µM; GI50 (OVCAR-5 ovarian): 1.56 µM; TGI (OVCAR-5 ovarian): 11.7 µM; GI50 (M14 melanoma): 1.1 µM; TGI (M14 melanoma): 2.57 µM; GI50 (SK-OV-3 ovarian): 0.378 µM; TGI (SK-OV-3 ovarian): 16.6 µM
